The subject of test [1] is Rac1. As to the kind of experiment: ELISA-based Rac1 activation assay in U373MG cells. The test is classed as cell-based, human. How it is done:
(§1) (C) Rac-1 activation assay in resting condition and after Sema3A-induced Rac-1 activation in U373 MG cells. (D) Western blot analysis of phosphorylated Akt, total Akt and tubulin in U373MG cells treated with the vehicle (LDS 72 μM), Sema3A (100 ng/ml) or Sema3A + MTP-PlexA1 (10^−7 M). The lower panel is showing the quantification of the p-Akt/Akt ratio in the different conditions. (E) MTP-PlexA1 decreases VEGFR-2 phosphorylation induced by VEGF (100 ng/ml) in HUVEC cells.
(§2) PlexA1 is a Rho-GTPase activating protein. Consistently, it has been shown that in response to Sema3A, the Rho-GTPase Rac1 is activated and sequestered at the plasma membrane. […] Moreover, it has been shown that Sema3A inhibits Akt phosphorylation through binding of Rnd1 to PlexA1. […] From these experiments we concluded that MTP-PlexA1 is able to antagonize major signaling pathways of PlexA1 receptor.

The test system of test [2] is VEGFR-2 phosphorylation. Put plainly: ELISA of VEGFR-2 phosphorylation in HUVEC cells. The class given is cell-based, human. The following applies: VEGF 100 ng/ml. How it is done: as §1, §2
Test [3] relates to HMEC cells. Put plainly: 3D migration assay with HMEC spheroids in plasma clot. The test is classed as cell-based, human. The note with it: 3D plasma clot, MTP-PlexA1 10^−7 M, VEGF 100 ng/ml.
The test system of test [4] is U118MG-Luc cells. As to the kind of experiment: MTT proliferation assay, U118MG-Luc. The test is classed as cell-based, human. The following applies: 24 h culture.
Test [5] concerns PH3 positive cells in U118MG-Luc tumors. Put plainly: PH3 immunostaining of U118MG-Luc xenograft tumor sections. The following applies: 5 sections per tumor, vs control; p = 0.0022, Mann Whitney. The test is classed as in vivo, human cells in mouse. How it is done: (§3) To address the biological consequences of MTP-PlexA1-mediated inhibition of PlexA1 we used the U118MG-Luc glioma cell line genetically engineered to express the luciferase reporter gene. […] Cells were then grafted subcutaneously and tumor growth was monitored every 5 days for a total period of 20 days. […] The quantitative analysis of the cumulated luminescent signal acquired all along the protocol confirmed the strong reduction of tumor development translating into a marked 75% reduction of the averaged luminescent signal at the end point (Figure 6C). […] In order to clarify the mechanism by which MTP-PlexA1 is exerting tumor growth inhibition we collected tumors and analyzed them histologically.
(§4) (B) Representative photographs illustrating the kinetic of tumor growth over 20 days in the two experimental groups. […] (D) Waterfall plot of best response representing the percent change in tumor volume of individual treated animals (grey bars, n = 10) compared to the average tumor volume increased determined in the control group (dark bars, n = 10). […] (F) Representative microphotographs and related quantification of PH3 positive cells in tumor slices (G) Representative microphotographs and related quantification of CD31 positive regions in tumor slices (% CD31 per μm² of tumors).

Test [6] concerns tumor-associated blood vessels (CD31). As to the kind of experiment: CD31 immunostaining of U118MG-Luc xenograft tumor sections. The test is classed as in vivo, mouse. The note with it: vs control; p = 0.0436, Mann Whitney. How it is done: as §3, §4
For test [7], the system named is NCH644 cells. As to the kind of experiment: MTS proliferation assay, NCH644 glioma stem cells. The test is classed as cell-based, human. The following applies: NCH644, p < 0.0001.
The subject of test [8] is NCH644 cells. Put plainly: sphere forming assay, NCH644 glioma stem cells. The class given is cell-based, human. The following applies: NCH644, 10^−9 M. How it is done: Mounting evidence supports a crucial role of cancer stem cells in the initiation or relapse of tumors. This is particularly the case for gliomas. Thus, we decided to evaluate to what extent MTP-PlexA1 would affect glioma stem cell (GSC) growth. To this end, we used the NCH644 human cell line derived from a patient biopsy. […] We next performed a sphere forming assay in which cells were plated into 96-well plates at a low density (30 cells per well) to monitor production of clones from individual cells growing as non-adherent gliomaspheres. A minimum of 30 cells per well was required to allow sufficient sphere production (composed of at least 8 cells) in a time frame compatible with drug testing. Visual control of sphere formation on a daily basis confirmed that cellular edifices were arising from single cells and not due to cell clumping. […] To address whether this inhibitory effect is sufficient to impede tumor development in vivo we performed a xenograft experiment. […]
Cells were stained with an orange fluorescent dye (CMRA orange, Molecular Probe) to facilitate monitoring of individual cell and sphere counting. […] The sphere forming rate was calculated by dividing the number of sphere at day 4 per the real number of cells at day one in a given well.

The test system of test [9] is U373MG cells. As to the kind of experiment: U373MG cell proliferation. The class given is cell-based, human.
Test [10] relates to U373MG tumors in nude mice. As to the kind of experiment: heterotopic U373MG xenograft in nude mice. The class given is in vivo, human cells in mouse. How it is done:
Supplementary Figure S6: The anti-tumor effect of MTP-PlxA1 was verified in U373MG human GBM line. […]
(Stable Disease) and 62.5% PR (Partial Response).

[11] abbreviates: U373MG, waterfall best response, RECIST criteria.

“TLPAIVGIGGGGGLLLLVIVAVLIAYKRK [MTP-PlexA1, synthetic transmembrane peptide mimicking the TMD of PlexA1]”: in test [1] (Sema3A-induced), the “Rac1 activity, Sema3A-induced” value is “significantly inhibited”. In test [1] (resting condition), the “Rac1 activity in the absence of ligand” value was “not affecting”. Besides, in test [2], the “change of VEGF-induced phosphorylation of VEGFR-2” value was −26%. Further, in [3], the “VEGFA-induced HMEC cell migration” value is on record as “abolished”. In addition, the “proliferation of U118MG-Luc cells” value in test [4] was “reduced proliferation in a dose dependent manner”. In addition, in test [5], the “decrease of PH3 positive proliferative cells in tumors” value is 37.3%. For the same sequence, the “reduction of tumor-associated blood vessel density (CD31)” value in test [6] amounted to 11.4%. For the same sequence, the “change of proliferation of glioma stem cells” value in test [7] is reported as −10%. In addition, the “decrease of sphere forming ability” value in test [8] (4 days, 30 cells per well, p = 0.0015, Student T test) is on record as 33.3%. In addition, the “sphere formation relative to vehicle” value in test [8] (vehicle = 100% +/− 9.7%) came out at 66.7% +/− 5.2. The “U373MG cell proliferation, dose dependence” value in test [9] is on record as “dose-dependent reduction”. The “change of U373MG cell proliferation, maximal effect” value in test [9] (at 10–7 M, p < 0.0001, Mann Whitney) is “–25%”. The “change of endpoint tumor weight” value in test [10] (U373MG flank graft, daily i.p., 10–7 M, p = 0.0044) is on record as −44%. In addition, in test [10] (setting [11]), the “mice responding to the treatment” value is recorded as 100%, the “mice with PR (Partial Response)” value turned out to be 62.5% and the “mice with SD (Stable Disease)” value is given as 37.5%.

For the origin of these results see paper PMC5295395, “Inhibition of PlexA1-mediated brain tumor growth and tumor-associated angiogenesis using a transmembrane domain targeting peptide” (Oncotarget, 2016).
